Data from patent US9725445B2, “Cycloalkyl nitrile pyrazolo pyridones as Janus kinase inhibitors” (Merck Sharp & Dohme Corp., priority 2013, dated 2017).

Experiments:
JAK1 = JAK1 (Homo sapiens (Human), UniProt P23458); test: Jak biochemical HTRF assay, JAK1; details: HTRF biochemical assay, recombinant GST-tagged catalytic domain; read-out: JAK1 IC50
JAK2 = JAK2 (Homo sapiens (Human), UniProt O60674); test: Jak biochemical HTRF assay, JAK2; details: HTRF biochemical assay, recombinant GST-tagged catalytic domain; read-out: JAK2 IC50
JAK2, sequence (O60674 849-1124): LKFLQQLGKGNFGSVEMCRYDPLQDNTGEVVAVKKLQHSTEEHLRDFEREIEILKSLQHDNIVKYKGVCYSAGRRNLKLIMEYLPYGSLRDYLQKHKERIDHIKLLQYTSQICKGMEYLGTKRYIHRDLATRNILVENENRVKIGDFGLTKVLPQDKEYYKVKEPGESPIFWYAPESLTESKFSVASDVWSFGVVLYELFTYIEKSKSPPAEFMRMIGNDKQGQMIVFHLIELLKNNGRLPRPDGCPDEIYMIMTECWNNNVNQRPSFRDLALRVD

JAK1, sequence (P23458 875-1153): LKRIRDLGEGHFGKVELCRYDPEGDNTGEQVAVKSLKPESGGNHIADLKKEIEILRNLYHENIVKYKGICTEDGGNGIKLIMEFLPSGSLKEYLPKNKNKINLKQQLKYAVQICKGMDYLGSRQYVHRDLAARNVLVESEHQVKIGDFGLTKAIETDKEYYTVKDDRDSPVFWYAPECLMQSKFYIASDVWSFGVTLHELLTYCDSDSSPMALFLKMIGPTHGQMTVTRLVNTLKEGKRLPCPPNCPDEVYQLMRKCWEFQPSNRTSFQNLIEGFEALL

SMILES | IC50 (JAK1) [nM] | IC50 (JAK2) [nM]
CC(C)(C)OC(=O)NCc1cc(Nc2nn([C@H]3CCCC[C@@H]3C#N)c3cc[nH]c(=O)c23)ccc1F [Example 3-35, tert-butyl [5-({1-[(1S,2S)-2-cyanocyclohexyl]-4-oxo-4,5-dihydro-1H-pyrazolo[4,3-c]pyridin-3-yl}amino)-2-fluorobenzyl]carbamate] | 3.2 | 4.7
CC(C)(C)OC(=O)C(C)(C)N1Cc2cc(Nc3nn([C@H]4CCCC[C@@H]4C#N)c4cc[nH]c(=O)c34)ccc2S1(=O)=O [Example 3-152, tert-butyl 2-[5-({1-[(1S,2S)-2-cyanocyclohexyl]-4-oxo-4,5-dihydro-1H-pyrazolo[4,3-c]pyridin-3-yl}amino)-1,1-dioxido-1,2-benzisothiazol-2(3H)-yl]-2-methylpropanoate] | 0.1 | 0.77
N#C[C@H]1CCCC[C@@H]1n1nc(Nc2ccc(C(O)C(F)(F)F)cc2)c2c(=O)[nH]ccc21 (single isomer, unassigned) [Example 3-9, (1S,2S)-2-[4-oxo-3-({4-[(1S or 1R)-2,2,2-trifluoro-1-hydroxyethyl]phenyl}amino)-4,5-dihydro-1H-pyrazolo[4,3-c]pyridin-1-yl]cyclohexanecarbonitrile] | 0.081 | 0.54
CC(C)(C)OC(=O)CN1Cc2ccc(Nc3nn([C@H]4CCCC[C@@H]4C#N)c4cc[nH]c(=O)c34)cc2C1 [Example 3-164, tert-butyl [5-({1-[(1S,2S)-2-cyanocyclohexyl]-4-oxo-4,5-dihydro-1H-pyrazolo[4,3-c]pyridin-3-yl}amino)-1,3-dihydro-2H-isoindol-2-yl]acetate] | 0.33 | 2.5
CS(=O)(=O)c1ccc(Nc2nn([C@H]3CCCC[C@@H]3C#N)c3cc[nH]c(=O)c23)cc1CN [Example 6-4, (1S,2S)-2-(3-((3-(aminomethyl)-4-(methylsulfonyl)phenyl)amino)-4-oxo-4,5-dihydro-1H-pyrazolo[4,3-c]pyridin-1-yl)cyclohexanecarbonitrile] | 1 | 2.9
CC1c2ccc(Nc3nn([C@H]4CCCC[C@@H]4C#N)c4cc[nH]c(=O)c34)cc2CN1C(=O)OC(C)(C)C (stereo partly drawn) [Example 18-1, tert-Butyl 5-((1-((1S,2S)-2-cyanocyclohexyl)-4-oxo-4,5-dihydro-1H-pyrazolo[4,3-c]pyridin-3-yl)amino)-1-methylisoindoline-2-carboxylate] | 1.3 | 5.4
CCN1Cc2ccc(Nc3nn([C@H]4CCCC[C@@H]4C#N)c4cc[nH]c(=O)c34)cc2C1 [Example 3-76, (1S,2S)-2-{3-[(2-ethyl-2,3-dihydro-1H-isoindol-5-yl)amino]-4-oxo-4,5-dihydro-1H-pyrazolo[4,3-c]pyridin-1-yl}cyclohexanecarbonitrile] | 0.41 | 2.1
N#C[C@H]1CCCC[C@@H]1n1nc(Nc2ccc(-c3nccs3)cc2)c2c(=O)[nH]ccc21 [Example 15-2, (1S,2S)-2-(4-oxo-3-{[4-(1,3-thiazol-2-yl)phenyl]amino}-4,5-dihydro-1H-pyrazolo[4,3-c]pyridin-1-yl)cyclohexanecarbonitrile] | 0.26 | 3.6
N#C[C@H]1CCCC[C@@H]1n1nc(Nc2ccc(C3(O)COC3)cc2)c2c(=O)[nH]ccc21 [Example 15-9, (1S,2S)-2-(3-{[4-(3-hydroxyoxetan-3-yl)phenyl]amino}-4-oxo-4,5-dihydro-1H-pyrazolo[4,3-c]pyridin-1-yl)cyclohexanecarbonitrile] | 0.32 | 1.1
N#C[C@H]1CCCC[C@@H]1n1nc(Nc2ccc(C(=O)N3CCCC3)cc2)c2c(=O)[nH]ccc21 [Example 3-44, (1S,2S)-2-(4-oxo-3-{[4-(pyrrolidin-1-ylcarbonyl)phenyl]amino}-4,5-dihydro-1H-pyrazolo[4,3-c]pyridin-1-yl)cyclohexanecarbonitrile] | 1.4 | 4.8
N#CCC1(n2nc(Nc3ccc(C(N)C(F)F)cc3)c3c(=O)[nH]ccc32)CCCCC1 (single isomer, unassigned) [Example 9-2, (R or S)-2-(1-(3-(4-(1-Amino(-2,2-difluoroethyl)phenylamino)-4-oxo-4,5-dihydro-1H-pyrazolo[4,3-c]pyridin-1-yl)cyclohexyl)acetonitrile] | 0.22 | 0.51
Cc1cc(Nc2nn([C@H]3CCCC[C@@H]3C#N)c3cc[nH]c(=O)c23)ccc1-c1cnn(CCC#N)c1 [Example 15-18, (1S,2S)-2-[3-({4-[1-(2-cyanoethyl)-1H-pyrazol-4-yl]-3-methylphenyl}amino)-4-oxo-4,5-dihydro-1H-pyrazolo[4,3-c]pyridin-1-yl]cyclohexanecarbonitrile] | 0.17 | 2.3
CC(=O)N1Cc2ccc(Nc3nn([C@H]4CCCC[C@@H]4C#N)c4cc[nH]c(=O)c34)cc2C1 [Example 15-26, (1S,2S)-2-{3-[(2-acetyl-2,3-dihydro-1H-isoindol-5-yl)amino]-4-oxo-4,5-dihydro-1H-pyrazolo[4,3-c]pyridin-1-yl}cyclohexanecarbonitrile] | 0.23 | 0.92
N#C[C@H]1CCCC[C@@H]1n1nc(Nc2ccc3c(c2)CC2(CCOCC2)S3(=O)=O)c2c(=O)[nH]ccc21 [Example 21-3, (1S,2S)-2-{3-[(1,1-dioxido-2′,3′,5′,6′-tetrahydro-3H-spiro[1-benzothiophene-2,4′-pyran]-5-yl)amino]-4-oxo-4,5-dihydro-1H-pyrazolo[4,3-c]pyridin-1-yl}cyclohexanecarbonitrile] | 0.069 | 0.18
N#C[C@H]1CCCC[C@@H]1n1nc(Nc2ccc3c(c2)CN([C@H]2CC[C@@H](C(=O)O)CC2)S3(=O)=O)c2c(=O)[nH]ccc21 [Example 16-2, (1S,4S)-4-(5-((1-((1S,2S)-2-cyanocyclohexyl)-4-oxo-4,5-dihydro-1H-pyrazolo[4,3-c]pyridin-3-yl)amino)-1,1-dioxidobenzo[d]isothiazol-2(3H)-yl)cyclohexanecarboxylic acid] | 0.069 | 0.47
CC(C)NS(=O)(=O)c1ccc(Nc2nn([C@H]3CCCC[C@@H]3C#N)c3cc[nH]c(=O)c23)cc1 [Example 3-18, 4-({1-[(1S,2S)-2-cyanocyclohexyl]-4-oxo-4,5-dihydro-1H-pyrazolo[4,3-c]pyridin-3-yl}amino)-N-(1-methylethyl)benzenesulfonamide] | 0.12 | 0.37
CN(C)S(=O)(=O)c1ccc(Nc2nn([C@H]3CCCC[C@@H]3C#N)c3cc[nH]c(=O)c23)cc1 [Example 3-6, 4-({1-[(1S,2S)-2-cyanocyclohexyl]-4-oxo-4,5-dihydro-1H-pyrazolo[4,3-c]pyridin-3-yl}amino)-N,N-dimethylbenzenesulfonamide] | 0.11 | 0.33
COCCN1Cc2cc(Nc3nn([C@H]4CCCC[C@@H]4C#N)c4cc[nH]c(=O)c34)ccc2S1(=O)=O [Example 3-83, (1S,2S)-2-(3-{[2-(2-methoxyethyl)-1,1-dioxido-2,3-dihydro-1,2-benzisothiazol-5-yl]amino}-4-oxo-4,5-dihydro-1H-pyrazolo[4,3-c]pyridin-1-yl)cyclohexanecarbonitrile] | 0.066 | 0.55
N#C[C@H]1CCCC[C@@H]1n1nc(Nc2ccc(C3CCCN3)cc2)c2c(=O)[nH]ccc21 (single isomer, unassigned) [Example 3-71, (1S,2S)-2-[4-oxo-3-({4-[(2S or 2R)-pyrrolidin-2-yl]phenyl}amino)-4,5-dihydro-1H-pyrazolo[4,3-c]pyridin-1-yl]cyclohexanecarbonitrile] | 0.27 | 0.54
CC(C)(O)c1cn(Cc2cccc(Nc3nn([C@H]4CCCC[C@@H]4C#N)c4cc[nH]c(=O)c34)c2)nn1 [Example 3-84, (1S,2S)-2-{3-[(3-{[4-(1-hydroxy-1-methylethyl)-1H-1,2,3-triazol-1-yl]methyl}phenyl)amino]-4-oxo-4,5-dihydro-1H-pyrazolo[4,3-c]pyridin-1-yl}cyclohexanecarbonitrile] | 0.52 | 2.6
N#C[C@H]1CCCC[C@@H]1n1nc(Nc2ccc3c(c2)CNS3(=O)=O)c2c(=O)[nH]ccc21 [Example 3-54, (1S,2S)-2-{3-[(1,1-dioxido-2,3-dihydro-1,2-benzisothiazol-5-yl)amino]-4-oxo-4,5-dihydro-1H-pyrazolo[4,3-c]pyridin-1-yl}cyclohexanecarbonitrile] | 0.051 | 0.62
CC(C)(C)NS(=O)(=O)c1ccc(Nc2nn([C@H]3CCCC[C@@H]3C#N)c3cc[nH]c(=O)c23)cc1 [Example 3-140, N-tert-butyl-4-({1-[(1S,2S)-2-cyanocyclohexyl]-4-oxo-4,5-dihydro-1H-pyrazolo[4,3-c]pyridin-3-yl}amino)benzenesulfonamide] | 0.17 | 0.43
CCOC(=O)c1cnn(-c2ccc(Nc3nn([C@H]4CCCC[C@@H]4C#N)c4cc[nH]c(=O)c34)cc2C)c1 [Example 15-15, ethyl 1-[4-({1-[(1S,2S)-2-cyanocyclohexyl]-4-oxo-4,5-dihydro-1H-pyrazolo[4,3-c]pyridin-3-yl}amino)-2-methylphenyl]-1H-pyrazole-4-carboxylate] | 1.7 | 5.9
CC(C)(C)N1Cc2cc(Nc3nn([C@H]4CCCC[C@@H]4C#N)c4cc[nH]c(=O)c34)ccc2C1=O [Example 15-20, (1S,2S)-2-{3-[(2-tert-butyl-1-oxo-2,3-dihydro-1H-isoindol-5-yl)amino]-4-oxo-4,5-dihydro-1H-pyrazolo[4,3-c]pyridin-1-yl}cyclohexanecarbonitrile] | 0.069 | 0.48
CC(C)N1Cc2cc(Nc3nn([C@H]4CCCC[C@@H]4C#N)c4cc[nH]c(=O)c34)ccc2S1(=O)=O [Example 3-79, (1S,2S)-2-(3-{[2-(1-methylethyl)-1,1-dioxido-2,3-dihydro-1,2-benzisothiazol-5-yl]amino}-4-oxo-4,5-dihydro-1H-pyrazolo[4,3-c]pyridin-1-yl)cyclohexanecarbonitrile] | 0.071 | 0.48
